Laboratory results taken from US20220401514A1, “ANTIMICROBIAL, BACTERIOPHAGE-DERIVED POLYPEPTIDES AND THEIR USE AGAINST GRAM-NEGATIVE AND ACID-FAST BACTERIA” (CONTRAFECT CORPORATION, priority 2019, published 2022).
Converted amounts (≈) assume the structure as drawn.

Assays:
[1] = test system: Mycobacterium tuberculosis strains; experiment: microbe, parasite or virus in culture
Procedure: MIC values for various Chp peptides were determined using the CLSI method for broth microdilution in 96-well microtiter format.
Next, MIC values for various Chp peptides were determined using the CLSI method above for broth microdilution in 96-well microtiter format for two different Mycobacterium tuberculosis strains. The MIC was determined as explained above for the NTM strains.

[2] = test system: Gram-negative with varying susceptibility to imipenem and relebactam; experiment: MIC against CDC Imipenem/Relebactam panel (n = 28); type: cell-based
Procedure: MIC values were determined using the methodology described above, i.e., the standard broth microdilution reference method defined by CLSI.
See wwwn.cdc.gov/ARIsolateBank/Panel/PanelDetail?ID=10.

[3] = test system: A. baumannii strain BAA-747 persister cells; experiment: Activity against persister cells, A. baumannii; type: cell-based, Acinetobacter baumannii
[4] = test system: carbapenamase-producing Enterobacteriaceae isolates; experiment: MIC against CDC Carbapenamase Enterobacteriaceae panel (n = 53); type: cell-based
Text: Additionally, a third panel of 53 carbapenamase-producing Enterobacteriaceae isolates were selected to represent a diversity of species and carbapenemases. See wwwn.cdc.gov/ARIsolateBank/Panel/PanelDetail?ID=8.

[5] = test system: P. aeruginosa strain CFS-1292; type: cell-based, Pseudomonas aeruginosa
[6] = test system: inner membrane of Gram-negative bacteria (including P. aeruginosa, E. cloacae, K. pneumoniae, E. coli, and A. baumannii); experiment: Inner membrane depolarization, diSC3-5 release; type: cell-based
Text: The mechanism of action of Chp peptides disclosed herein can also be evaluated by measuring the depolarization of the inner membrane of Gram-negative bacteria. […] Upon permeabilization of the outer membrane, the ability of Chp peptides to induce dissipation of the cytoplasmic membrane electrical potential gradient (Δψ) may be examined, for example by following the release of 3,3′-dipropylthiadicarbocyanine (diSC3-5) as a function of time compared to an untreated control. DiSC3-5 is a fluorophore that is a caged cation concentrated within the bacterial inner membrane and under the influence of the bacterial membrane electrical potential gradient. At high concentrations, diSC3-5 self-quenches, leading to the suppression of fluorescence. When the inner membrane deteriorates or becomes leaky for cations, including protons, the A it dissipates, which leads to a release of diSC3-5 and a subsequent increase in fluorescence.

[7] = test system: outer membrane of Gram-negative bacteria (including P. aeruginosa, E. cloacae, K. pneumoniae, E. coli, and A. baumannii); experiment: Outer membrane permeabilization, NPN uptake; type: cell-based
Text: NPN is largely excluded by intact Gram-negative bacteria, but enhanced uptake of NPN may occur in cells having a damaged or permeable outer membrane. NPN fluoresces strongly under hydrophobic conditions and weakly under aqueous conditions. Therefore, NPN's interaction with membrane phospholipids in the bacterial envelope increases its fluorescence signal and can be used as an indication of a compromised bacterial membrane and a measurement of the outer membrane permeability.

[8] = test system: LPS; experiment: Endotoxin neutralization, limulus amoebocyte lysate (LAL) enzyme assay, LPS binding; type: biochemical; conditions: LPS 0.8 EU/mL
Procedure: CHEM. […] The standard reference samples contained only LPS dissolved in pyrogen-free water. Solutions were mixed well and incubated at 24° C. for 1 hour, and the manufacturers' test procedure for quantitative detection of endotoxins was followed.

[9] = Carbapenamase Enterobacteriaceae panel

Compound NC[C@H]1O[C@H](O[C@H]2[C@H](O)[C@@H](O[C@H]3O[C@H](CO)[C@@H](O)[C@H](N)[C@H]3O)[C@H](N)C[C@@H]2N)[C@H](N)C[C@@H]1O [tobramycin, reference compound] has an MIC ([1]; ATCC25177) of 4 µg/mL (≈ 8.56 µM) and an MIC ([1]; ATCC35817) of 4 µg/mL (≈ 8.56 µM).

Work on “MRLKMARRRYRLPRRRSRRLFSRTALRMHPRNRLRRIMRGGIRF [Chp2]” yielded an MIC ([2]; Bank No. 0501, Enterobacter cloacae) of 0.5 µg/mL, an MIC ([2]; Bank No. 0502, Enterobacter cloacae) of 0.5 µg/mL and an MIC ([2]; Bank No. 0504, Klebsiella pneumoniae) of 0.5 µg/mL. The MIC ([2]; Bank No. 0505, Klebsiella pneumoniae) was 1 µg/mL, the MIC ([2]; Bank No. 0506, Klebsiella pneumoniae) was 1 µg/mL and the MIC ([2]; Bank No. 0507, Klebsiella pneumoniae) was 0.5 µg/mL. It also gave an MIC ([2]; Bank No. 0508, Pseudomonas aeruginosa) of 1 µg/mL, an MIC ([2]; Bank No. 0509, Pseudomonas aeruginosa) of 1 µg/mL and an MIC ([2]; Bank No. 0510, Pseudomonas aeruginosa) of 0.5 µg/mL. For the same compound, the MIC ([2]; Bank No. 0511, Pseudomonas aeruginosa) was 0.5 µg/mL, the MIC ([2]; Bank No. 0512, Pseudomonas aeruginosa) was 1 µg/mL and the MIC ([2]; Bank No. 0513, Pseudomonas aeruginosa) was 0.5 µg/mL. The MIC ([2]; Bank No. 0514, Pseudomonas aeruginosa) was 1 µg/mL, the MIC ([2]; Bank No. 0515, Pseudomonas aeruginosa) was 0.5 µg/mL and the MIC ([2]; Bank No. 0516, Pseudomonas aeruginosa) was 0.5 µg/mL. The MIC ([2]; Bank No. 0517, Serratia marcescens) was over 8 µg/mL, the MIC ([2]; Bank No. 0518, Pseudomonas aeruginosa) was 1 µg/mL and the MIC ([2]; Bank No. 0519, Morganella morganii) was “ng”. The MIC ([2]; Bank No. 0520, Serratia marcescens) was over 8 µg/mL, the MIC ([2]; Bank No. 0521, Serratia marcescens) was over 8 µg/mL and the MIC ([2]; Bank No. 0522, Klebsiella pneumoniae) was 0.5 µg/mL. The MIC ([2]; Bank No. 0523, Klebsiella pneumoniae) was 0.5 µg/mL, the MIC ([2]; Bank No. 0524, Klebsiella pneumoniae) was 1 µg/mL and the MIC ([2]; Bank No. 0525, Klebsiella pneumoniae) was 1 µg/mL. The MIC ([2]; Bank No. 0526, Pseudomonas aeruginosa) was 2 µg/mL, the MIC ([2]; Bank No. 0527, Pseudomonas aeruginosa) was 1 µg/mL and the MIC ([2]; Bank No. 0528, Pseudomonas aeruginosa) was 1 µg/mL. It also gave an MIC ([2]; Bank No. 0529, Pseudomonas aeruginosa) of 0.5 µg/mL, an MIC50 ([2]; Imipenem/Relebactam panel) of 0.5 µg/mL and an MIC90 ([2]; Imipenem/Relebactam panel) of 1 µg/mL. The “MIC Log10 (CFU/mL) Run #1” value ([3]; A. baumannii BAA-747 persister cells, 1 hour at 37° C., Run #1, limit of detection 1.6-log10 CFU/mL) was 1.5 Log10 (CFU/mL), the “MIC Log10 (CFU/mL) Run #2” value ([3]; A. baumannii BAA-747 persister cells, 1 hour at 37° C., Run #2, limit of detection 1.6-log10 CFU/mL) was 2.2 Log10 (CFU/mL) and the “MIC Log10 (CFU/mL) Run #3” value ([3]; A. baumannii BAA-747 persister cells, 1 hour at 37° C., Run #3, limit of detection 1.6-log10 CFU/mL) was 1.5 Log10 (CFU/mL). For the same compound, the “MIC Log10 (CFU/mL) Average” value ([3]; A. baumannii BAA-747 persister cells, average of 3 runs) was 1.8 Log10 (CFU/mL), the “Delta Log” value ([3]; A. baumannii BAA-747 persister cells, log10 CFU/mL reduction as compared to buffer) was 3.1 and the “log10 CFU/mL reduction as compared to buffer” value ([3]; A. baumannii persister cells, 1 hour at 37° C.) was 3.1 log10 CFU/mL. It also gave an MIC ([4]; Bank No. 0112, Klebsiella pneumoniae) of 1 µg/mL, an MIC ([4]; Bank No. 0113, Klebsiella pneumoniae) of 1 µg/mL and an MIC ([4]; Bank No. 0114, Escherichia coli) of 0.5 µg/mL. It also gave an MIC ([4]; Bank No. 0115, Klebsiella pneumoniae) of 1 µg/mL, an MIC ([4]; Bank No. 0116, Citrobacter freundii) of 0.5 µg/mL and an MIC ([4]; Bank No. 0117, Klebsiella pneumoniae) of 0.5 µg/mL. For the same compound, the MIC ([4]; Bank No. 0118, Escherichia coli) was 0.5 µg/mL, the MIC ([4]; Bank No. 0119, Escherichia coli) was 0.5 µg/mL and the MIC ([4]; Bank No. 0120, Klebsiella pneumoniae) was 0.25 µg/mL. The MIC ([4]; Bank No. 0121, Serratia marcescens) was over 8 µg/mL, the MIC ([4]; Bank No. 0122, Serratia marcescens) was over 8 µg/mL and the MIC ([4]; Bank No. 0123, Serratia marcescens) was over 8 µg/mL. For the same compound, the MIC ([4]; Bank No. 0124, Serratia marcescens) was over 8 µg/mL, the MIC ([4]; Bank No. 0125, Klebsiella pneumoniae) was 1 µg/mL and the MIC ([4]; Bank No. 0126, Klebsiella pneumoniae) was 1 µg/mL. For the same compound, the MIC ([4]; Bank No. 0127, Salmonella Senftenberg) was 0.5 µg/mL, the MIC ([4]; Bank No. 0128, Escherichia coli) was 0.5 µg/mL and the MIC ([4]; Bank No. 0129, Klebsiella pneumoniae) was 1 µg/mL. It also gave an MIC ([4]; Bank No. 0130, Serratia marcescens) of over 8 µg/mL, an MIC ([4]; Bank No. 0131, Serratia marcescens) of over 8 µg/mL and an MIC ([4]; Bank No. 0132, Enterobacter cloacae group) of 1 µg/mL. It also gave an MIC ([4]; Bank No. 0134, Raoultella ornithinolytica) of 1 µg/mL, an MIC ([4]; Bank No. 0135, Klebsiella pneumoniae) of 0.5 µg/mL and an MIC ([4]; Bank No. 0136, Enterobacter cloacae) of 0.5 µg/mL. For the same compound, the MIC ([4]; Bank No. 0137, Escherichia coli) was 0.25 µg/mL, the MIC ([4]; Bank No. 0138, Klebsiella pneumoniae) was 0.5 µg/mL and the MIC ([4]; Bank No. 0139, Klebsiella pneumoniae) was 1 µg/mL. For the same compound, the MIC ([4]; Bank No. 0140, Klebsiella pneumoniae) was 0.5 µg/mL, the MIC ([4]; Bank No. 0141, Klebsiella pneumoniae) was 0.5 µg/mL and the MIC ([4]; Bank No. 0142, Klebsiella pneumoniae) was 0.5 µg/mL. For the same compound, the MIC ([4]; Bank No. 0143, Klebsiella pneumoniae) was 0.5 µg/mL, the MIC ([4]; Bank No. 0144, Kluyvera ascorbata) was 0.25 µg/mL and the MIC ([4]; Bank No. 0145, Klebsiella pneumoniae) was 1 µg/mL. For the same compound, the MIC ([4]; Bank No. 0146, Klebsiella pneumoniae) was 1 µg/mL, the MIC ([4]; Bank No. 0147, Klebsiella oxytoca) was 1 µg/mL and the MIC ([4]; Bank No. 0148, Klebsiella pneumoniae) was 1 µg/mL. For the same compound, the MIC ([4]; Bank No. 0149, Escherichia coli) was 0.5 µg/mL, the MIC ([4]; Bank No. 0150, Escherichia coli) was 0.25 µg/mL and the MIC ([4]; Bank No. 0151, Escherichia coli) was 0.25 µg/mL. For the same compound, the MIC ([4]; Bank No. 0152, Klebsiella pneumoniae) was 1 µg/mL, the MIC ([4]; Bank No. 0153, Klebsiella pneumoniae) was 0.5 µg/mL and the MIC ([4]; Bank No. 0154, Enterobacter cloacae) was 0.25 µg/mL. It also gave an MIC ([4]; Bank No. 0155, Proteus mirabilis) of 0.25 µg/mL, an MIC ([4]; Bank No. 0156, Proteus mirabilis) of 0.5 µg/mL and an MIC ([4]; Bank No. 0157, Citrobacter freundii) of 0.5 µg/mL. It also gave an MIC ([4]; Bank No. 0158, Klebsiella pneumoniae) of 0.5 µg/mL, an MIC ([4]; Bank No. 0159, Proteus mirabilis) of 0.25 µg/mL and an MIC ([4]; Bank No. 0160, Klebsiella pneumoniae) of 1 µg/mL. It also gave an MIC ([4]; Bank No. 0161, Enterbacter aerogenes) of 2 µg/mL, an MIC ([4]; Bank No. 0162, Escherichia coli) of 0.25 µg/mL and an MIC ([4]; Bank No. 0163, Enterobacter cloacae) of 0.25 µg/mL. The MIC ([4]; Bank No. 0164, Enterobacter cloacae complex) was 1 µg/mL, the MIC50 [4, 9] was 0.5 µg/mL and the MIC90 [4, 9] was 1 µg/mL. The “frequency (spontaneous resistance)” value ([5]; CAA media with agent at 4×MIC, resistant colonies after 48 hours / total CFUs) was under 1.25E−09, the MIC ([5]; P. aeruginosa CFS-1292, MIC underlying the 4×MIC selection) was 0.25 µg/mL and the “membrane depolarization (diSC3-5)” value [6] was “dose-dependent increase in membrane depolarization, equivalent or superior to that of melittin, LL37, RI-18, and PMBN”. For the same compound, the “outer membrane permeability (NPN uptake)” value [7] was “dose-dependent increase in outer membrane permeability, equivalent to that of colistin, LL37, and melittin”, the LPS binding ([8]; […]-64 μg/mL, 24° C., 1 hour) was “demonstrate binding to LPS” and the “% LPS Bound” value ([8]; peptide concentration 0.5 μg/mL) was 28.7%. For the same compound, the “% LPS Bound” value ([8]; peptide concentration 1 μg/mL) was 28.0%, the “% LPS Bound” value ([8]; peptide concentration 2 μg/mL) was 27.0% and the “% LPS Bound” value ([8]; peptide concentration 4 μg/mL) was 29.3%. For the same compound, the “% LPS Bound” value ([8]; peptide concentration 8 μg/mL) was 31.0%, the “% LPS Bound” value ([8]; peptide concentration 16 μg/mL) was 40.8% and the “% LPS Bound” value ([8]; peptide concentration 32 μg/mL) was 58.1%. The “% LPS Bound” value ([8]; peptide concentration 64 μg/mL) was 71.0%.
